# Activity calls are given as the source filed them. No cut-off for these calls is given here.
# How the values were obtained:
# CRMM-1 [1] = test: Antitumor activity against human CRMM-1 cells xenografted in immunodeficient NCG mouse assessed as tumor growth suppression at 10 mg/kg, po for 28 days administered five times per week relative to control; format: functional; details: time 28 day
# [2] = Toxicity in immunodeficient NCG mouse xenografted with human CRMM-1 cells assessed as pathomorphological change in liver at 10 mg/kg, po for 28 days administered five times per week by H and E staining based analysis; format: organism-based; details: in vivo, 672 h, time 28 day
# [3] = Toxicity in immunodeficient NCG mouse xenografted with human CRMM-1 cells assessed as pathomorphological change in kidney at 10 mg/kg, po for 28 days administered five times per week by H and E staining based analysis; format: organism-based; details: in vivo, 672 h, time 28 day
# CRMM-1 [4] = test: Antitumor activity against human CRMM-1 cells xenografted in immunodeficient NCG mouse assessed as mean tumor volume at 10 mg/kg, po for 28 days administered five times per week (reference value: 540 mm3); format: functional; details: time 28 day
# CRMM-1 [5] = test: Induction of DNA double strand breaks in human CRMM-1 cells assessed as gamma-H2AX accumulation at 1 uM measured after 24 hrs immunofluorescence based confocal microscopy; format: functional, cell-based
# CRMM-1 [6] = test: Induction of DNA damage in human CRMM-1 cells assessed as decrease in RAD51 level upto 10 uM measured after 48 hrs by immunoblot analysis; format: functional, cell-based
# CRMM-1 [7] = test: Induction of DNA damage in human CRMM-1 cells assessed as decrease in NBS1 level measured after 48 hrs by immunoblot analysis; format: functional, cell-based; details: dose <= 10.0 µM
# CRMM-2 [8] = test: Induction of DNA damage in human CRMM-2 cells assessed as decrease in […] level upto 10 uM measured after 48 hrs by immunoblot analysis; format: functional, cell-based
# CRMM-1 [9] = test: Induction of DNA double strand breaks in human CRMM-1 cells assessed as gamma-H2AX accumulation upto 10 uM by immunoblot analysis; format: functional, cell-based
# CRMM-1 [10] = test: Induction of apoptosis in human CRMM-1 cells at 0.1 uM measured after 48 hrs by DAPI/Annexin-V-PE staining based flow cytometry; format: functional, cell-based
# CRMM-1 [11] = test: Induction of DNA damage in human CRMM-1 cells assessed as increase in p53 level upto 10 uM by immunoblot analysis; format: functional, cell-based
# CRMM-1 [12] = test: Induction of DNA damage in human CRMM-1 cells assessed as decrease in RAD50 level measured after 48 hrs by immunoblot analysis; format: functional, cell-based; details: dose <= 10.0 µM
# CRMM-2 [13] = test: Induction of DNA double strand breaks in human CRMM-2 cells assessed as gamma-H2AX accumulation upto 10 uM by immunoblot analysis; format: functional, cell-based
# CRMM-2 [14] = test: Induction of DNA damage in human CRMM-2 cells assessed as decrease in RAD51 level upto 10 uM measured after 48 hrs by immunoblot analysis; format: functional, cell-based
# CRMM-2 [15] = test: Induction of DNA damage in human CRMM-2 cells assessed as decrease in RAD50 level measured after 48 hrs by immunoblot analysis; format: functional, cell-based; details: dose <= 10.0 µM
# CRMM-1 [16] = test: Induction of apoptosis in human CRMM-1 cells at 0.3 to 3 uM measured after 48 hrs by DAPI/Annexin-V-PE staining based flow cytometry; format: functional, cell-based; details: dose 0.3-3 µM
# CRMM-2 [17] = test: Induction of DNA damage in human CRMM-2 cells assessed as decrease in MRE11 level measured after 48 hrs by immunoblot analysis; format: functional, cell-based; details: dose <= 10.0 µM
# CRMM-1 [18] = test: Induction of DNA damage in human CRMM-1 cells assessed as decrease in MRE11 level measured after 48 hrs by immunoblot analysis; format: functional, cell-based; details: dose <= 10.0 µM
# [19] = molecular target: T1, Double-strand break repair protein MRE11 (Homo sapiens) (UniProt P49959); test: Inhibition of his-tagged human MRE11 endonuclease activity using phage X174 circular ssDNA as substrate at 10 to 300 uM incubated for 30 mins by chemiluminescence based analysis; details: dose 10-300 µM
# T1 sequence (whole entry): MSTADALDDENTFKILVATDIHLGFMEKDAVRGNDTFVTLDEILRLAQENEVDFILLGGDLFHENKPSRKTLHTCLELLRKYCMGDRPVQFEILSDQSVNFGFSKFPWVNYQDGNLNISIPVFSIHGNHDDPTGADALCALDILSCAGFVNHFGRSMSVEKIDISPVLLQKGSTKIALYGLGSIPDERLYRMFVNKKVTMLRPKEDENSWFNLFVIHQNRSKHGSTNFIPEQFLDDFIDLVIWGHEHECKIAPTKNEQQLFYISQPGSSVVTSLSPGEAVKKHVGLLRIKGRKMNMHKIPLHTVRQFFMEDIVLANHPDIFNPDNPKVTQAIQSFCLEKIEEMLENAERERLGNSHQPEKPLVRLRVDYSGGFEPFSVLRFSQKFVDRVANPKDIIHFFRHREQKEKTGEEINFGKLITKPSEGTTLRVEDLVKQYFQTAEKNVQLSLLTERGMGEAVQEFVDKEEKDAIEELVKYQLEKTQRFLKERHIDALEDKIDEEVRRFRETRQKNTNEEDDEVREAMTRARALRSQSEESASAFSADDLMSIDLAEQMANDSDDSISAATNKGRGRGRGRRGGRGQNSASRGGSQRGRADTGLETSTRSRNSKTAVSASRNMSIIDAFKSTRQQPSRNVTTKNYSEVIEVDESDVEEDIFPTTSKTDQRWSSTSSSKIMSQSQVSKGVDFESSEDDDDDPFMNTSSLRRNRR
# CRMM-2 [20] = test: Induction of DNA double strand breaks in human CRMM-2 cells assessed as gamma-H2AX accumulation at 1 uM measured after 24 hrs immunofluorescence based confocal microscopy; format: functional, cell-based
# CRMM-2 [21] = test: Induction of DNA damage in human CRMM-2 cells assessed as decrease in NBS1 level measured after 48 hrs by immunoblot analysis; format: functional, cell-based; details: dose <= 10.0 µM
# CRMM-1 [22] = test: Induction of DNA damage in human CRMM-1 cells assessed as decrease in […] level upto 10 uM measured after 48 hrs by immunoblot analysis; format: functional, cell-based
# CRMM-2 [23] = test: Induction of DNA damage in human CRMM-2 cells assessed as increase in p53 level upto 10 uM by immunoblot analysis; format: functional, cell-based
# CRMM-1 [24] = test: Cytotoxicity against human CRMM-1 cells assessed as cell growth inhibition incubated for 72 hrs by CCK8 assay; format: functional, cell-based; details: CRMM-1, 72 h
# CM-AS16 [25] = test: Effect on DNA repair genes in human CM-AS16 cells harboring BRAF mutation at 20 uM by GO enrichment analysis; format: functional, cell-based
# [26] = Cytotoxicity against human CM-AS16 cells assessed as cell growth inhibition incubated for 72 hrs by CCK8 assay; format: functional, cell-based; details: CM-AS16, 72 h
# CRMM-2 [27] = test: Antiproliferative activity against human CRMM-2 cells assessed as cell growth inhibition incubated for 72 hrs by CCK8 assay; format: functional, cell-based; details: CRMM-2, 72 h
# CRMM-2 [28] = test: Cytotoxicity against human CRMM-2 cells assessed as cell growth inhibition incubated for 72 hrs by CCK8 assay; format: functional, cell-based; details: CRMM-2, 72 h
# [29] = Cytotoxicity against human PIG1 cells at 20 uM incubated for 72 hrs by CCK8 assay relative to control; format: toxicity, cell-based; details: read-out: INH
# CRMM-1 [30] = test: Induction of apoptosis in human CRMM-1 cells at 40 uM measured after 48 hrs by DAPI/Annexin-V-PE staining based flow cytometry relative to control; format: functional
# [31] = Antiproliferative activity against human PIG1 cells assessed as cell growth inhibition incubated for 72 hrs by CCK8 assay; format: toxicity, cell-based
# CM-AS16 [32] = test: Effect on DNA integrity checkpoint genes in human CM-AS16 cells harboring BRAF mutation at 20 uM by GO enrichment analysis; format: functional, cell-based
# [33] = Inhibition of homologous recombination in human CRMM-1 cells at 10 uM incubated for 12 hrs by real-time PCR analysis relative to control; format: functional
# [34] = Antiproliferative activity against human CM2005.1 cells assessed as cell growth inhibition incubated for 72 hrs by CCK8 assay; format: functional, cell-based; details: CM2005.1, 72 h
# [35] = Antiproliferative activity against human CM-AS16 cells assessed as cell growth inhibition incubated for 72 hrs by CCK8 assay; format: functional, cell-based; details: CM-AS16, 72 h
# CRMM-1 [36] = test: Antiproliferative activity against human CRMM-1 cells assessed as cell growth inhibition incubated for 72 hrs by CCK8 assay; format: functional, cell-based; details: CRMM-1, 72 h
# CRMM-1 [37] = test: Inhibition of cell migration in human CRMM-1 cells assessed as migration rate at 3 uM measured after 72 hrs by wound healing assay (reference value: 70 %); format: functional; set-up: scale not given: the % may be the effect or the level left
# [38] = Antiproliferative activity against human HL7702 cells assessed as cell growth inhibition incubated for 72 hrs by CCK8 assay; format: toxicity, cell-based; details: HL7702 (L02) cells
# CM-AS16 [39] = test: Effect on Fanconi anemia pathway in human CM-AS16 cells harboring BRAF mutation at 20 uM by KEGG analysis; format: functional, cell-based
# [40] = Cytotoxicity against human CM2005.1 cells assessed as cell growth inhibition incubated for 72 hrs by CCK8 assay; format: functional, cell-based; details: CM2005.1, 72 h
# CRMM-1 [41] = test: Inhibition of homologous recombination in human CRMM-1 cells at 10 uM incubated for 12 hrs by real-time PCR analysis; format: functional, cell-based
smiles,measurement,setting,value
Cn1cnc2c(F)c(Nc3ccc(Br)cc3F)c(C(=O)NOCCO)cc21 [BINIMETINIB],Activity,CRMM-1 [1],41%
same,Activity,[2],Non-Toxic
same,Activity,[3],Non-Toxic
same,Activity,CRMM-1 [4],270 mm3
O=C(CCCc1ccccc1)c1c(OCCCN2CCNCC2)ccc2ccccc12,Activity,CRMM-1 [5],Active
same,Activity,CRMM-1 [6],Active
same,Activity,CRMM-1 [7],Dose-Dependent Effect
same,Activity,CRMM-2 [8],Active
same,Activity,CRMM-1 [9],Active
same,Activity,CRMM-1 [10],inactive
same,Activity,CRMM-1 [11],Active
same,Activity,CRMM-1 [12],Dose-Dependent Effect
same,Activity,CRMM-2 [13],Active
same,Activity,CRMM-2 [14],Active
same,Activity,CRMM-2 [15],Dose-Dependent Effect
same,Activity,CRMM-1 [16],Active
same,Activity,CRMM-2 [17],Dose-Dependent Effect
same,Activity,CRMM-1 [18],Dose-Dependent Effect
same,inhibition,[19],Active
same,Activity,CRMM-2 [20],Active
same,Activity,CRMM-2 [21],Dose-Dependent Effect
same,Activity,CRMM-1 [22],Active
same,Activity,CRMM-2 [23],Active
CCCNCC(O)COc1ccccc1C(=O)CCc1ccccc1 (stereo not drawn) [PROPAFENONE],IC50,CRMM-1 [24],24.7 µM
same,Activity,CM-AS16 [25],Active
same,IC50,[26],13.7 µM
same,IC50,CRMM-2 [27],13.4 µM
same,IC50,CRMM-2 [28],13.4 µM
same,"cytotoxicity at 72 h, 20 µM",[29],26%
same,Activity,CRMM-1 [30],80%
same,Activity,CRMM-1 [16],Active
same,IC50 at 72 h,[31],56 µM
same,Activity,CM-AS16 [32],Active
same,inhibition at 10 µM,[33],56.9%
same,IC50,[34],48.3 µM
same,IC50,[35],13.7 µM
same,IC50,CRMM-1 [36],24.7 µM
same,Activity,CRMM-1 [37],58%
same,IC50 at 72 h,[38],48.2 µM
same,Activity,CM-AS16 [39],Active
same,IC50,[40],48.3 µM
C=C(CCc1ccccc1)c1ccccc1OCC(O)CNCCC (stereo not drawn),inhibition,CRMM-1 [41],inactive
same,IC50,CRMM-2 [27],9.5 µM
same,IC50 at 72 h,[31],16.1 µM
same,IC50,[34],9.1 µM
same,IC50,[35],4 µM
same,IC50,CRMM-1 [36],6.3 µM
same,IC50 at 72 h,[38],14.8 µM

# — ChEMBL document CHEMBL5385901, “Drug repurposing of propafenone to discover novel anti-tumor agents by impairing homologous recombination to delay DNA damage recovery of rare disease conjunctival melanoma” (Eur J Med Chem, 2023)
